Laboratory results: paper PMC6301270 (MedChemComm, 2018)
“Also recorded” adds a separate entry of the source. Read-outs that look alike come from different tables or passages of the source.

Tests used:
[1] = system: T.b. brucei (strain 427) bloodstream form parasites; assay: Trypanosoma brucei assay, dose–response (this study); format: cell-based; conditions: for IC50: Trypanosoma brucei; for Selectivity index: calculated as IC50(HeLa)/IC50(T.bb)
[2] = system: T.b. brucei (strain 427) bloodstream form parasites; assay: T.b. brucei single concentration screen (10 μM); conditions: Trypanosoma brucei, read-out: T.b.brucei % viability (10 µM)
[3] = system: HeLa cells; assay: HeLa cell assay (cytotoxicity); format: cell-based; conditions: Homo sapiens, HeLa cells, 48 hours, resazurin, read-out: HeLa IC50
Method: HeLa cells were cultured in DMEM medium supplemented with 10% fetal bovine serum and antibiotics (penicillin/streptomycin/amphotericin B) at 37 °C in a 5% CO2 incubator. On the day prior to compound addition, cells were plated in 96-well plates at 2 × 10^4 cells per well. Compounds were added to the cells in 3-fold serial dilutions and incubation at 37 °C in a 5% CO2 incubator continued for 48 hours. Twenty μl resazurin reagent (0.5 mM resazurin in phosphate-buffered saline) was added to each well and, after a 2-hour incubation, fluorescence (Exc560/Em590) was measured in a plate reader. Percentage cell viability in drug-treated wells was calculated from the fluorescent readings obtained relative to those in wells containing control, untreated cells. Plots of % cell viability vs. log[compound] were used to determine IC50 values by non-linear regression analysis using GraphPad Prism.

[4] = Table 1, kinetoplastid category, 48 hours at 37 °C, resazurin, read-out: T. brucei brucei IC50 (μM) This study
[5] = Table 2, remaining Pathogen Box, 48 hours at 37 °C, resazurin, read-out: T. brucei brucei IC50 (μM) This study

Row | Structure (SMILES) | viability at 10 µM [2] [%] | IC50 [1, 5] [µM] | IC50 ([3]; Table 2) [µM] | Selectivity index [1] | further results
1 | CC1CCCCN1C(=O)NCCc1coc(-c2ccc(F)cc2)n1 (centres unmarked) [Compound 5, CC1CCCCN1C(=O)NCCc2coc(n2)c3ccc(F)cc3] | 2.2 |  |  |  | IC50 [1, 4]: 0.05 µM; IC50 ([3]; Table 1): > 25 µM
2 | c1ccc(-c2nc(NC3CCCCC3)cc(C3CC3)n2)nc1 [Compound 35, C1CCC(CC1)Nc2cc(nc(n2)c3ccccn3)C4CC4] | 2 | 0.83 | > 25 |  | T.b. brucei inhibition in words, this study [1]: sub-micromolar range; also recorded: activity in the nanomolar range; IC50 ([1]; pIC50 values (M), read-out: pIC50 (T.b. brucei), this study (converted)): < 1 µM
3 | Cc1ccc2[nH]c(C3CCCNC3)c(-c3ccncc3)c2c1 (centres unmarked) [Compound 36, Cc1ccc2[nH]c(C3CCCNC3)c(c4ccncc4)c2c1] | 1 | 2.2 | 8.9 | 4.0 | 
4 | CCOC(=O)c1c(NC(=O)c2c(F)c(F)c(F)c(F)c2F)sc(C(N)=O)c1C [Compound 37, CCOC(=O)c1c(C)c(sc1NC(=O)c2c(F)c(F)c(F)c(F)c2F)C(=O)N] | 7 | 11 | > 25 | > 2.2 | 
5 | COC(=O)c1c(NC(=O)c2c(F)c(F)c(F)c(F)c2F)sc2c1CCCCC2 [Compound 38, COC(=O)c1c2CCCCCc2sc1NC(=O)c3c(F)c(F)c(F)c(F)c3F] | 7 | 11 | > 25 | > 2.2 | 
6 | O=C(Nc1nc(-c2ccccn2)cs1)c1cncn1-c1ccccc1 [Compound 41, O=C(Nc1nc(cs1)c2ccccn2)c3cncn3c4ccccc4] | 1 | 1.1 | 5.1 | 4.6 | 
7 | CC(C)=CCC/C(C)=C\CNCCNC1C2CC3CC(C2)CC1C3 (centres unmarked) [Compound 42, CC(=CCC\C(=C/CNCCNC1C2CC3CC(CC1C3)C2)\C)C] | 2 | 2.3 | 15 | 6.5 | 
8 | COc1cccc(-c2nc3c(N4CCCC4)cccc3n2CC2CCCN2)n1 (centres unmarked) [Compound 44, COc1cccc(n1)c2nc3c(cccc3n2CC4CCCN4)N5CCCC5] | 4 | 4.2 | 22 | 5.2 | 
9 | Cc1cnc(N2CCN[C@@H](Cc3ccccc3)C2)nc1Oc1ccc(-n2ccnc2)cc1 [Compound 45, Cc1cnc(nc1Oc2ccc(cc2)n3ccnc3)N4CCN[C@@H](Cc5ccccc5)C4] | 10 | 5.1 | > 25 | > 4.9 | 
10 | COc1ccc2nccc(NC(=O)C3CCN(CCc4ccc(Cl)cc4)CC3)c2n1 [Compound 47, COc1ccc2nccc(NC(=O)C3CCN(CCc4ccc(Cl)cc4)CC3)c2n1] | 7 | 29 | > 25 |  | 
11 | COc1ccc(OC)c(NCc2ccc3nc(N)nc(N)c3c2Cl)c1 [Compound 48, COc1ccc(OC)c(NCc2ccc3nc(N)nc(N)c3c2Cl)c1] | 12 | 1.2 | > 25 | > 21 | 
12 | Cc1cc(C2=NOC(c3cc(Cl)c(F)c(Cl)c3)(C(F)(F)F)C2)ccc1C(=O)NCc1ccc2c(c1)C(C)(C)OB2O (centres unmarked) [Compound 49, Cc1cc(ccc1C(=O)NCc2ccc3B(O)OC(C)(C)c3c2)C4=NOC(C4)(c5cc(Cl)c(F)c(Cl)c5)C(F)(F)F] | 1 | 1.2 | 10 | 8.3 | 
13 | CC(C)n1nc(-c2cc3c(Cl)cccc3[nH]2)c2c(N)ncnc21 [Compound 50, CC(C)n1nc(-c2cc3c(Cl)cccc3[nH]2)c2c(N)ncnc12] | 4 | 4.3 | > 25 | > 5.8 | 
14 | CN(C)c1cc(NC(=O)Nc2ccccc2)c2ccccc2n1 [Compound 52, CN(C)c1cc(NC(=O)Nc2ccccc2)c3ccccc3n1] | 1 | 4.7 | > 25 | > 5.3 | 
15 | CC[C@H]1CN2CCc3cc(OC)c(OC)cc3[C@@H]2C[C@@H]1C[C@H]1NCCc2cc(OC)c(OC)cc21 [Emetine, reference compound] |  |  |  |  | IC50 ([3]; Table 1): 0.4 µM
16 | CCc1cc(=O)n(C)c(SC(C)C(=O)Nc2ccc(F)cc2)n1 (centres unmarked) [MMV688980, CCC1=CC(=O)N(C)C(=N1)SC(C)C(=O)Nc2ccc(F)cc2] | 101 |  |  |  | 
17 | Clc1ccc(CN2CCN(C3=NCCN3)CC2)cc1Cl [MMV689060, Clc1ccc(CN2CCN(CC2)C3=NCCN3)cc1Cl] | 101 |  |  |  | 

Row | Structure (SMILES) | viability at 10 µM [2] [%] | IC50 [1, 5] [µM] | IC50 ([3]; Table 2) [µM] | Selectivity index [1] | further results
18 | CC(=O)Nc1ccc(-c2noc(CC3CCCN(Cc4cccc(F)c4C)C3)n2)cc1 (centres unmarked) [MMV689061, CC1=C(F)C=CC=C1CN2CCCC(CC3=NC(C4=CC=C(NC(C)=O)C=C4)=NO3)C2] | 92 |  |  |  | 
19 | FC(F)(F)c1ccc(N(c2cccnc2)C2CCN(c3ccc(C(F)(F)F)cn3)CC2)cc1 [MMV689243, FC(F)(F)c1ccc(cc1)N(C2CCN(CC2)c3ccc(cn3)C(F)(F)F)c4cccnc4] | 103 |  |  |  | 
20 | O=C([C@@H](c1ccc(Cl)cc1)c1cccnc1)N1CCN(c2ccc(C(F)(F)F)cc2)CC1 [MMV689244, FC(F)(F)c1ccc(cc1)N2CCN(CC2)C(=O)[C@@H](c3ccc(Cl)cc3)c4cccnc4] | 108 |  |  |  | 
21 | Nc1ncnc2c1ncn2C[C@@H](O)[C@@H](O)C(=O)O [MMV689255, Nc1ncnc2c1ncn2C[C@@H](O)[C@@H](O)C(=O)O] | 111 |  |  |  | 
22 | CC(c1cc(Cl)cc(Cl)c1)N(C)c1ncc2c(N)nc(N)nc2n1 (centres unmarked) [MMV689437, CC(N(C)c1ncc2c(N)nc(N)nc2n1)c3cc(Cl)cc(Cl)c3] | 98 |  |  |  | 
23 | CNc1cc(C)nc(C2CN(C(=O)c3n[nH]c4ccccc34)CCO2)c1 (centres unmarked) [MMV689709, O=C(N1CC(C2=CC(NC)=CC(C)=N2)OCC1)C3=NNC4=C3C=CC=C4] | 87 |  |  |  | 
24 | COc1ccc(Oc2ccc([C@@H](C)N(C)c3ncc4c(N)nc(N)nc4n3)cc2)cc1 [MMV690102, COc1ccc(Oc2ccc(cc2)[C@@H](C)N(C)c3ncc4c(N)nc(N)nc4n3)cc1] | 42 |  |  |  | 
25 | C[C@H](c1ccc2c(c1)CCCC2)N(C)c1ncc2c(N)nc(N)nc2n1 [MMV690103, C[C@@H](N(C)c1ncc2c(N)nc(N)nc2n1)c3ccc4CCCCc4c3] | 26 |  |  |  | 
26 | CCc1ccc(C(NCc2nc(N)nc(N(C)C)n2)C(C)C)cc1 (centres unmarked) [MMV1019989, CCc1ccc(cc1)C(NCc2nc(N)nc(n2)N(C)C)C(C)C] | 92 |  |  |  | 
27 | O=C(Nc1nc(-c2ccccn2)cs1)C1CC1c1ccccc1F (centres unmarked) [MMV1028806, Fc1ccccc1C2CC2C(=O)Nc3nc(cs3)c4ccccn4] | 63 |  |  |  | 
28 | CNC(=O)CNc1nc(-c2ccccn2)nc2scc(-c3ccccc3)c12 [MMV1029203, CNC(=O)CNc1nc(nc2scc(c3ccccc3)c12)c4ccccn4] | 98 |  |  |  | 
29 | CCNC(=O)C(C)Nc1nc(-c2cccnc2)nc2sc(C)c(C)c12 (centres unmarked) [MMV1037162, CCNC(=O)C(C)Nc1nc(nc2sc(C)c(C)c12)c3cccnc3] | 85 |  |  |  | 
30 | Cc1ccc(-c2nc(CN(Cc3ccccn3)C(C)C)cs2)o1 [MMV1088520, CC(C)N(Cc1ccccn1)Cc2csc(n2)c3oc(C)cc3] | 72 |  |  |  | 
31 | COc1cccn2c(C(=O)N3CCCCC3)c(C(F)(F)F)nc12 [MMV1110498, FC(F)(F)C1=C(C(N2CCCCC2)=O)N(C=CC=C3OC)C3=N1] | 99 |  |  |  | 
32 | Cc1cc(OCC(=O)Nc2ccc(C(C)C)cc2)n(C)c(=O)c1C#N [MMV1198433, CC(C)c1ccc(NC(=O)COC2=CC(=C(C#N)C(=O)N2C)C)cc1] | 70 |  |  |  | 
33 | N=C(N)c1ccc(OCCCCCOc2ccc(C(=N)N)cc2)cc1 [Pentamidine, reference compound] |  |  |  |  | IC50 [1, 4]: 0.0031 µM
